# According to patent publication US6737383B1, “Herbicidal oxadiazolidines” (priority 1999, dated 2004):
# Columns and labels:
# wild oat = test: Test B pre/postemergence wild oat; type: in vivo, Avena fatua
# Procedure, shortened: (§1)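 Test chemicals in a non-phytotoxic solvent mixture with surfactant were sprayed preemergence onto planted seeds and postemergence onto plants 2 to 18 cm tall (1- to 4-leaf stage). After twelve to sixteen days in a greenhouse, injury was visually rated against untreated controls from 0 (no effect) to 10 (complete control).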
# smallflower flatsedge = test: Test B flood test smallflower flatsedge; type: in vivo, Cyperus difformis; details: for S. Flatsedge plant response rating: Postemergence section (flood test species)
# Procedure, shortened: (§2)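 Flood test on plants grown to the 2-leaf stage; treated plants kept in greenhouse twelve to sixteen days, then visually rated against controls on a 0 (no effect) to 10 (complete control) scale.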
# surinam grass = test: Test B pre/postemergence surinam grass; type: in vivo, Brachiaria decumbens
# Procedure, shortened: as §1
# pigweed = test: Test B pre/postemergence pigweed; type: in vivo, Amaranthus retroflexus
# Procedure, shortened: as §1
# giant foxtail = test: Test B pre/postemergence giant foxtail; type: in vivo, Setaria faberii
# Procedure, shortened: as §1
# wheat = test: Test B pre/postemergence wheat; type: in vivo, Triticum aestivum
# Procedure, shortened: as §1
# bedstraw = test: Test B pre/postemergence bedstraw; type: in vivo, Galium aparine; details: Postemergence
# Procedure, shortened: as §1
# bamyardgrass = test: Test B flood test barnyardgrass; type: in vivo, Echinochloa crus-galli
# Procedure, shortened: as §2
# cocklebur = test: Test B pre/postemergence cocklebur; type: in vivo, Xanthium strumarium
# Procedure, shortened: as §1
# morningglory = test: Test B pre/postemergence morningglory; type: in vivo, Ipomoea hederacea
# Procedure, shortened: as §1
# velvetleaf = test: Test B pre/postemergence velvetleaf; type: in vivo, Abutilon theophrasti
# Procedure, shortened: as §1
# rape = test: Test B pre/postemergence rape; type: in vivo, Brassica napus
# Procedure, shortened: as §1
# blackgrass = test: Test B pre/postemergence blackgrass; type: in vivo, Alopecurus myosuroides
# Procedure, shortened: as §1
# duck salad = test: Test B flood test duck salad; type: in vivo, Heteranthera limosa
# Procedure, shortened: as §2
# soybean = test: Test B pre/postemergence soybean; type: in vivo, Glycine max
# Procedure, shortened: as §1
# purple nutsedge = test: Test B pre/postemergence purple nutsedge; type: in vivo, Cyperus rotundus
# Procedure, shortened: as §1
# [1] = Postemergence, Rate 500 g/ha, scale of 0 to 10 where 0 is no effect and 10 is complete control
# [2] = Preemergence, Rate 62 g/ha, scale 0 to 10 (0 no effect, 10 complete control)
# [3] = Preemergence, Rate 125 g/ha, scale of 0 to 10 where 0 is no effect and 10 is complete control
# [4] = Preemergence, Rate 250 g/ha, scale 0 to 10, 0 is no effect, 10 is complete control
# [5] = Preemergence, Rate 500 g/ha, scale 0 to 10, 0 is no effect, 10 is complete control
# [6] = Rate 125 g/ha, Postemergence, scale 0 to 10, 0 is no effect, 10 is complete control
# [7] = Rate 500 g/ha, scale of 0 to 10 where 0 is no effect and 10 is complete control
# [8] = Rate 125 g/ha, scale 0 to 10, 0 is no effect, 10 is complete control
# [9] = flood test species, listed under Postemergence, Rate 250 g/ha, scale 0 to 10, 0 is no effect, 10 is complete control
# [10] = Postemergence, Rate 250 g/ha, scale 0 to 10, 0 is no effect, 10 is complete control
# [11] = Preemergence, Rate 250 g/ha, scale of 0 to 10 where 0 is no effect and 10 is complete control
# [12] = Rate 62 g/ha, Postemergence, scale of 0 to 10 where 0 is no effect and 10 is complete control
# [13] = Postemergence section (flood test species), Rate 500 g/ha, scale of 0 to 10 where 0 is no effect and 10 is complete control
# [14] = Rate 62 g/ha, Postemergence (flood test species), scale of 0 to 10 where 0 is no effect and 10 is complete control
# [15] = Rate 125 g/ha, Postemergence section (flood test species), scale 0 to 10, 0 is no effect, 10 is complete control
compound,measurement,setting,value
CC(C)N(C(=O)n1oc(=O)n(C(CF)CF)c1=O)c1ccccc1 [Compound 421],Wild oats plant response rating,wild oat; [1],8
same,"Plant response rating, Wild oats",wild oat; [2],6
same,"Plant response rating, Wild oats",wild oat; [3],7
same,Wild oats plant response rating,wild oat; [4],10
same,Wild oats plant response rating,wild oat; [5],10
same,Wild oats plant response rating,wild oat; [6],0
same,S. Flatsedge plant response rating,smallflower flatsedge; [7],0
same,S. Flatsedge plant response rating,smallflower flatsedge; [8],0
same,"Plant response rating, S. Flatsedge",smallflower flatsedge; [9],0
same,"Plant response rating, B. signalgrass",surinam grass; [10],7
same,B. signalgrass plant response rating,surinam grass; [1],10
same,"Plant response rating, B. signalgrass",surinam grass; [2],7
same,"Plant response rating, B. signalgrass",surinam grass; [3],8
same,B. signalgrass plant response rating,surinam grass; [11],9
same,B. signalgrass plant response rating,"surinam grass; Preemergence, Rate 500 g/ha, scale of 0 to 10 where 0 is no effect and 10 is complete control",9
same,B. signalgrass plant response rating,surinam grass; [12],0
same,B. signalgrass plant response rating,surinam grass; [6],3
same,"Plant response rating, Redroot pigweed",pigweed; [10],5
same,Redroot pigweed plant response rating,pigweed; [1],8
same,"Plant response rating, Redroot pigweed",pigweed; [2],8
same,"Plant response rating, Redroot pigweed",pigweed; [3],10
same,Redroot pigweed plant response rating,pigweed; [4],10
same,Redroot pigweed plant response rating,pigweed; [5],10
same,Redroot pigweed plant response rating,pigweed; [6],2
same,"Plant response rating, Giant foxtail",giant foxtail; [10],9
same,Giant foxtail plant response rating,giant foxtail; [1],9
same,"Plant response rating, Giant foxtail",giant foxtail; [2],9
same,"Plant response rating, Giant foxtail",giant foxtail; [3],10
same,Giant foxtail plant response rating,giant foxtail; [4],10
same,Giant foxtail plant response rating,giant foxtail; [5],10
same,Giant foxtail plant response rating,giant foxtail; [12],8
same,Giant foxtail plant response rating,giant foxtail; [6],9
same,Wheat plant response rating,wheat; [1],7
same,"Plant response rating, Wheat",wheat; [2],4
same,"Plant response rating, Wheat",wheat; [3],4
same,Wheat plant response rating,wheat; [4],7
same,Wheat plant response rating,wheat; [5],9
same,Wheat plant response rating,wheat; [6],1
same,"Plant response rating, Bedstraw","bedstraw; Rate 250 g/ha, scale 0 to 10, 0 is no effect, 10 is complete control",7
same,Bedstraw plant response rating,bedstraw; [7],7
same,Bedstraw plant response rating,bedstraw; [8],4
same,Barnyardgrass plant response rating,bamyardgrass; [13],3
same,Barnyardgrass plant response rating,bamyardgrass; [14],0
same,Barnyardgrass plant response rating,bamyardgrass; [15],0
same,"Plant response rating, Barnyardgrass",bamyardgrass; [9],2
same,"Plant response rating, Cocklebur",cocklebur; [10],1
same,Cocklebur plant response rating,cocklebur; [1],6
same,"Plant response rating, Cocklebur",cocklebur; [2],0
same,"Plant response rating, Cocklebur",cocklebur; [3],0
same,Cocklebur plant response rating,cocklebur; [5],0
same,Cocklebur plant response rating,cocklebur; [12],0
same,Cocklebur plant response rating,cocklebur; [6],0
same,"Plant response rating, Morningglory",morningglory; [10],9
same,Morningglory plant response rating,morningglory; [1],10
same,"Plant response rating, Morningglory",morningglory; [2],4
same,"Plant response rating, Morningglory",morningglory; [3],6
same,Morningglory plant response rating,morningglory; [4],7
same,Morningglory plant response rating,morningglory; [5],8
same,Morningglory plant response rating,morningglory; [6],8
same,"Plant response rating, Velvetleaf",velvetleaf; [10],4
same,Velvetleaf plant response rating,velvetleaf; [1],7
same,"Plant response rating, Velvetleaf",velvetleaf; [2],8
same,"Plant response rating, Velvetleaf",velvetleaf; [3],9
same,Velvetleaf plant response rating,velvetleaf; [4],10
same,Velvetleaf plant response rating,velvetleaf; [5],10
same,Velvetleaf plant response rating,velvetleaf; [6],0
same,"Plant response rating, Rape",rape; [10],3
same,Rape plant response rating,rape; [1],8
same,"Plant response rating, Rape",rape; [2],8
same,"Plant response rating, Rape",rape; [3],10
same,Rape plant response rating,rape; [4],10
same,Rape plant response rating,rape; [5],10
same,Rape plant response rating,rape; [6],0
same,"Plant response rating, Blackgrass",blackgrass; [10],8
same,Blackgrass plant response rating,blackgrass; [1],10
same,"Plant response rating, Blackgrass",blackgrass; [2],8
same,"Plant response rating, Blackgrass",blackgrass; [3],10
same,Blackgrass plant response rating,blackgrass; [11],10
same,Blackgrass plant response rating,blackgrass; [5],10
same,Blackgrass plant response rating,blackgrass; [12],8
same,Blackgrass plant response rating,blackgrass; [6],8
same,Ducksalad plant response rating,duck salad; [13],2
same,Ducksalad plant response rating,duck salad; [14],0
same,Ducksalad plant response rating,duck salad; [15],0
same,"Plant response rating, Ducksalad",duck salad; [9],2
same,"Plant response rating, Soybean",soybean; [10],7
same,Soybean plant response rating,soybean; [1],8
same,"Plant response rating, Soybean",soybean; [2],4
same,"Plant response rating, Soybean",soybean; [3],4
same,Soybean plant response rating,soybean; [4],5
same,Soybean plant response rating,soybean; [5],10
same,Soybean plant response rating,soybean; [6],6
same,"Plant response rating, Nutsedge",purple nutsedge; [10],0
same,Nutsedge plant response rating,purple nutsedge; [1],2
same,"Plant response rating, Nutsedge",purple nutsedge; [2],0
same,"Plant response rating, Nutsedge",purple nutsedge; [3],0
same,Nutsedge plant response rating,purple nutsedge; [4],0
same,Nutsedge plant response rating,purple nutsedge; [5],0
same,Nutsedge plant response rating,purple nutsedge; [6],0
